Measurements taken from patent US20250212891A1, “MIXTURES AND COMPOSITIONS COMPRISING PAENIBACILLUS STRAINS OR FUSARICIDINS AND CHEMICAL PESTICIDES” (BASF SE, priority 2016, published 2025).
Read-outs that look alike come from different tables or passages of the source. Positions of bridges follow the written chain, without caps; N, C: chain ends. Residues, ends and D or L forms follow the SMILES beside them. ξ: configuration not given here. *: point of attachment. Pentadecanoyl(3ξ-OH,15-Gua) = N=C(N)NCCCCCCCCCCCCC(O)CC(=O)*

What was measured:
Botrytis cinerea = test: Microtiterplate test against grey mold (Botrci); assay type: cell-based; details: Botrytis cinerea, 168 h, read-out: Observed efficacy
Leptosphaeria nodorum = test: Microtiterplate test against wheat leaf spots (Leptno); assay type: cell-based
[1] = system: Botrytis cinerea (BOTRCI); test: Glasshouse test, grey mold on pepper, protective application; assay type: in vivo; details: in planta
[2] = system: Alternaria solani (ALTESO); test: Glasshouse test, early blight on tomato, protective application; assay type: in vivo; details: in planta, 36 ppm
[3] = system: Phakopsora pachyrhizi (PHAKPA); test: Glasshouse test, soybean rust on soybean, protective application; assay type: in vivo; details: in planta, 360 ppm
[4] = system: Botrytis cinerea (BOTRCI); test: Fungal growth assay in 96 well plates; assay type: cell-based; details: Botrytis cinerea, 168 h; evaluation 7 days after inoculation, OD 600 nm, about 18° C.; read-out: Fungal growth inhibition (IC50 [μM]) BOTRCI (7 d)
[5] = system: Alternaria solani (ALTESO); test: Fungal growth assay in 96 well plates; assay type: cell-based; details: Alternaria solani
Pyricularia oryzae = assay type: cell-based; details: Pyrior, single active, 7 days after inoculation
Septoria tritici = test: Microtiterplate test against leaf blotch on wheat (Septtr); assay type: cell-based
Alternaria solani = test: Microtiterplate test against early blight (Alteso); assay type: cell-based
[6] = 72 h, evaluation 3 days after inoculation, OD 600 nm, about 18° C., read-out: Fungal growth inhibition (IC50 [μM]) ALTESO (3 d)
[7] = 168 h, evaluation 7 days after inoculation, OD 600 nm, about 18° C., read-out: Fungal growth inhibition (IC50 [μM]) ALTESO (7 d)
[8] = summary over ALTESO and BOTRCI of Tab. 18, read-out: IC50 values (antifungal efficacy, Tab. 18)

N#Cc1c[nH]cc1-c1cccc2c1OC(F)(F)O2 [Fludioxonil]
inhibition of growth at 0.004 ppm (Botrytis cinerea): 12%

Cc1cc(C)nc(Nc2ccccc2)n1 [Pyrimethanil]
inhibition of growth at 0.063 ppm (Botrytis cinerea): 11% | inhibition of growth at 4 ppm (Botrytis cinerea; 4 ppm): 45% | Observed efficacy (Leptosphaeria nodorum; 0.063 ppm): 1%

CCC(C)C1NC(=O)C(NC(=O)CC(O)CCCCCCCCCCCCNC(=N)N)C(C)OC(=O)C(C)NC(=O)C(CC(N)=O)NC(=O)C(C(C)O)NC(=O)C(Cc2ccc(O)cc2)NC1=O (centres unmarked) [Compound 1A, fusaricidin 1A] ({Pentadecanoyl(3ξ-OH,15-Gua)}-TIYTNA; ester 1-C; configuration not given here)
% efficacy (% fungal attack) BOTRCI ([1]; 36 ppm): 97% | % efficacy (% fungal attack) BOTRCI ([1]; 360 ppm): 99% | % efficacy (% fungal attack) ALTESO [2]: 74% | % efficacy (% fungal attack) PHAKPA [3]: 95% | IC50 [4]: 0.3 µM | IC50 [5, 6]: 0.6 µM | IC50 [5, 7]: 0.5 µM | IC50 [5, 8]: 0.4 to 0.6 µM | inhibition of growth at 1 ppm (Botrytis cinerea): 40% | Observed efficacy (Pyricularia oryzae; 0.004 ppm): 3% | Observed efficacy (Pyricularia oryzae; 1 ppm): 7% | Observed efficacy (Septoria tritici; 0.016 ppm): 9% | Observed efficacy (Septoria tritici; 0.063 ppm): 8% | Observed efficacy (Septoria tritici; 0.25 ppm): 12% | Observed efficacy (Alternaria solani; 0.016 ppm): 1% | Observed efficacy (Alternaria solani; 0.063 ppm): 7% | Observed efficacy (Alternaria solani; 0.25 ppm): 10% | Observed efficacy (Alternaria solani; 1 ppm): 58% | Observed efficacy (Leptosphaeria nodorum; 1 ppm): 19%

CO/C=C(/C(=O)OC)c1ccccc1Oc1cc(Oc2ccccc2C#N)ncn1 [Azoxystrobin]
Observed efficacy (Septoria tritici; 0.063 ppm): 60% | Observed efficacy (Alternaria solani; 0.016 ppm): 43% | Observed efficacy (Leptosphaeria nodorum; 0.25 ppm): 59%

CC1(C)CCC(Cc2ccc(Cl)cc2)C1(O)Cn1cncn1 (centres unmarked) [Metconazol, metconazole, reference compound]
inhibition of growth at 0.004 ppm (Botrytis cinerea; 0.004 ppm): 1% | inhibition of growth at 0.016 ppm (Botrytis cinerea): 9% | inhibition of growth at 0.063 ppm (Botrytis cinerea): 29% | Observed efficacy (Pyricularia oryzae; 0.25 ppm): 23% | Observed efficacy (Septoria tritici; 0.016 ppm): 25% | Observed efficacy (Alternaria solani; 0.063 ppm): 45% | Observed efficacy (Leptosphaeria nodorum; 0.016 ppm): 3% | Observed efficacy (Leptosphaeria nodorum; 0.063 ppm): 27%

COC(=O)N(OC)c1ccccc1COc1ccn(-c2ccc(Cl)cc2)n1 [Pyraclostrobin, pyraclostrobin, reference compound]
inhibition of growth at 0.001 ppm (Botrytis cinerea; 0.001 ppm): 4% | inhibition of growth at 0.016 ppm (Botrytis cinerea): 5% | inhibition of growth at 0.25 ppm (Botrytis cinerea): 10% | Observed efficacy (Pyricularia oryzae; 0.001 ppm): 28% | Observed efficacy (Pyricularia oryzae; 0.004 ppm): 44% | Observed efficacy (Septoria tritici; 0.004 ppm): 12% | Observed efficacy (Leptosphaeria nodorum; 0.001 ppm): 3% | Observed efficacy (Leptosphaeria nodorum; 0.016 ppm): 11%

CC1COC(Cn2cncn2)(c2ccc(Oc3ccc(Cl)cc3)cc2Cl)O1 (centres unmarked) [Difenoconazol]
Observed efficacy (Alternaria solani; 0.25 ppm): 67%

COCC(=O)N(c1c(C)cccc1C)C(C)C(=O)OC (centres unmarked) [Metalaxyl]
inhibition of growth at 0.25 ppm (Botrytis cinerea): 0% | Observed efficacy (Alternaria solani; 16 ppm): 10% | Observed efficacy (Leptosphaeria nodorum; 0.063 ppm): 0%

CCC(C)C1NC(=O)C(NC(=O)CC(O)CCCCCCCCCCCCNC(=N)N)C(C)OC(=O)C(C)NC(=O)C(CCC(N)=O)NC(=O)C(C(C)O)NC(=O)C(Cc2ccc(O)cc2)NC1=O (centres unmarked) [Compound 1B, fusaricidin 1B] ({Pentadecanoyl(3ξ-OH,15-Gua)}-TIYTQA; ester 1-C; configuration not given here)
% efficacy (% fungal attack) BOTRCI ([1]; 36 ppm): 97% | % efficacy (% fungal attack) BOTRCI ([1]; 360 ppm): 100% | % efficacy (% fungal attack) PHAKPA [3]: 97% | IC50 [4]: 0.4 µM | IC50 [5, 6]: 0.6 µM | IC50 [5, 7]: 0.4 µM | IC50 [5, 8]: 0.4 to 0.6 µM | inhibition of growth at 0.25 ppm (Botrytis cinerea): 4% | inhibition of growth at 1 ppm (Botrytis cinerea): 50% | Observed efficacy (Pyricularia oryzae; 0.016 ppm): 2% | Observed efficacy (Pyricularia oryzae; 0.063 ppm): 3% | Observed efficacy (Pyricularia oryzae; 0.25 ppm): 3% | Observed efficacy (Pyricularia oryzae; 1 ppm): 12% | Observed efficacy (Septoria tritici; 0.016 ppm): 20% | Observed efficacy (Septoria tritici; 0.063 ppm): 22% | Observed efficacy (Septoria tritici; 0.25 ppm): 20% | Observed efficacy (Alternaria solani; 0.063 ppm): 13% | Observed efficacy (Alternaria solani; 0.25 ppm): 14% | Observed efficacy (Alternaria solani; 1 ppm): 59% | Observed efficacy (Leptosphaeria nodorum; 0.25 ppm): 0% | Observed efficacy (Leptosphaeria nodorum; 1 ppm): 14%

prohexadione-calcium [Prohexadion-ca]
Observed efficacy (Pyricularia oryzae; 4 ppm): 4%
